What all share (format): in vivo
Test [1] deals with diamondback moth larvae. As to the kind of experiment: Non-selective antifeeding, leaf disk dipping. As to conditions: third-instar larvae. On the procedure:
(§1) Test Method: • Preparing N6-(2-hydroxyethyl)-adenosine solutions of various concentrations; • Diluting the 20% N6-(2-hydroxyethyl)-adenosine suspension to make solutions with 1000 mg/L, 800 mg/L, 600 mg/L, 400 mg/L, and 200 mg/L active ingredient concentrations, respectively, for testing the roles of N6-(2-hydroxyethyl)-adenosine in stomach poisoning of diamondback moth larvae. • Diluting the 20% N6-(2-hydroxyethyl)-adenosine suspending agent to make solutions with 300 mg/L, 250 mg/L, 200 mg/L, 150 mg/L and 100 mg/L active ingredient concentrations, respectively, to test the roles of N6-(2-hydroxyethyl)-adenosine in suppressing feeding and retarding development of diamondback moth larvae.
(§2) Round leaf disk dipping method was employed in this test. Prepare leaf disks out of cabbage leaves with a round hole puncher (d=2 cm), and soak the disks in N6-(2-hydroxyethyl)-adenosine solutions with different concentrations for 30 seconds. Then, take the leaf disks out and drain the excessive solution with clean blotting paper to prepare them for treatments. Use 0.1% triton solution as a blank control.
Put a good-sized piece of filter paper in a Petri-dish, and then put two processed leaf disks in the same Petri-dish and another two control leaf disks in a different dish. Inoculate three third-instar diamondback moth larvae that have been subjected to 4-hour starvation treatments onto the leaf disks and seal the dish. Prepare 10 replicas for each treatment group. After 48 hours, pick five replicas with 0% death rate to measure the leaf areas that have been consumed by the larvae with a grid paper and calculate the average leaf consumption areas. Non-Selective Antifeeding Rate (%)=[(Leaf Consumption Area in the Control Group—Leaf Consumption Area in the Treatment Group)÷Leaf Consumption Area in the Control Group]×100.

Test [2] concerns diamondback moth larvae. Nature of the test: Development retardation (weight gain inhibition) of diamondback moth larvae. As to conditions: for Average Weight (10 Tested Larvae) (mg) Δ4d: weight gain. On the procedure: as §1
Soak the cabbage leaves (7 cm in diameters) in the prepared solutions for 30 seconds, take the leaves out, leave them to dry, and then transfer the dried leaves to a Petri-dish (9 cm in diameter) cushioned with a wet filter paper. Inoculate 15 weighed third-instar diamondback moth larvae onto each Petri-dish. […] Prepare four replicas for each treatment group to determine the effects of various solutions in inhibiting the weight gain of the larvae.
Weight-Gain Inhibition Rate (%)=[(the Average Weight Gain of the Control Group−the Average Weight Gain of the Treatment Group)÷the Average Weight Gain of the Control Group]×100.
(§3) The results obtained were analyzed for significances of difference using Ducan's New Multiple Range Method. The various lowercase letters following the data in the same column indicate significant differences at a level of 0.05 level (P<0.05). The various capital letters following the data in the same column indicate significant differences at a level of 0.01 (P<0.01).

Test [3] deals with diamondback moth larvae. As to the kind of experiment: Stomach poisoning (oral toxicity) of diamondback moth larvae. As to conditions: for Average Corrected Death Rate (%), stomach poisoning: 96 h. Here is the method: Test Insects: Artificial subculture breeding of diamondback moths collected at Xinqiao greenhouse vegetable field in Wenzhou was carried out in a thermostat illumination incubator and the second-instar larvae breeds of a consistent size and color were picked for tests.
as §1
Cut healthy, fresh cabbage leaves in small pieces that are 7 cm in diameters. Smear these pieces with various spore suspensions and leave them to dry naturally. Repeat the smearing process 3 times, and then put the leaves in plastic Petri-dishes with tiny holes that are 2 cm in diameter. Cover the dishes with nylon membranes to keep the leaves fresh.
Pick out healthy indoor bred third-instar diamondback moth larvae of similar sizes with a writing brush, and inoculate them onto the cabbage leaves. Make 4 replicas of the treatments, each of which should contain 20 tested larvae. Cultivate the dishes in an incubator set to 25±1° C., 75˜80% relative humidity and 16 L:8D illumination. Observe and record the number of larvae that die of infection every day. Use 0.1% triton solution as a blank control and use the Abbott formula for correction of death rates. Corrected Death Rate (%)=[(Death Rate of the Treatment Group−Death Rate of the Control Group)/(1−Death Rate of the Control Group)]×100.
as §3

Test [4] deals with aphids. Nature of the test: Insecticidal activity on aphids. As to conditions: experimental data omitted.
For test [5], the system named is diamondback moth larvae. Nature of the test: Selective antifeeding (feeding suppression), leaf disk dipping. The note with it: for Selective antifeeding rate: third-instar larvae. Here is the method: as §1, §2
Put a good-size piece of filter paper in a Petri-dish, and then put two processed and two control leaf disks into the same Petri-dish, which are arrayed in a cross fashion. Inoculate three third-instar diamondback moth larvae that have been subjected to 4-hour starvation treatments onto the leaf disks and seal the dish. Prepare 10 replicas for each treatment group. After 48 hours, pick five replicas with 0% death rate to measure the leaf areas that have been consumed by the larvae with a grid paper and calculate the average leaf consumption areas. Antifeeding Rate (%)=[(Leaf Consumption Area in the Control Group−Leaf Consumption Area in the Treatment Group)÷(Leaf Consumption Area in the Control Group+Leaf Consumption Area in the Treatment Group)]×100.

Each structure is given as a SMILES string.

As for `OCCNc1ncnc2c1ncn2[C@@H]1O[C@H](CO)[C@@H](O)[C@H]1O` [N6-(2-hydroxyethyl)-adenosine], the Non-selective antifeeding rate is recorded as 65.75% in test [1] (200 mg/L, 48 hour); 75.73% in test [1] (250 mg/L, 48 hours); 77.64% in test [1] (300 mg/L, 48 hours). The “Average Weight (10 Tested Larvae) (mg) Δ4d” value was 4.13 mg in test [2] (100 mg/L); 2.40 mg in test [2] (150 mg/L); 1.33 mg in test [2] (200 mg/L); 0.65 mg in test [2] (250 mg/L); 0.48 mg in test [2] (300 mg/L). The inhibition (in general, the percentage by which the read-out fell short of the control) at 100 µg/mL in test [2] (Plutella xylostella, 72 h, 100 mg/L, 3 days after treatment, third-instar larvae, read-out: Weight Gain Inhibition Rate (%)) came to 18.3%. In addition, the inhibition at 150 µg/mL in test [2] (Plutella xylostella, 72 h, 150 mg/L, 3 days after treatment, third-instar larvae, read-out: Weight Gain Inhibition Rate (%)) worked out at 52.5%. The inhibition at 200 µg/mL in test [2] (Plutella xylostella, 72 h, 200 mg/L, 3 days after treatment, third-instar larvae, read-out: Weight Gain Inhibition Rate (%)) is 73.8%. Further, the inhibition at 250 µg/mL in test [2] (Plutella xylostella, 72 h, 250 mg/L, 3 days after treatment, third-instar larvae, read-out: Weight Gain Inhibition Rate (%)) came out at 87.1%. The inhibition at 300 µg/mL in test [2] (Plutella xylostella, 72 h, 300 mg/L, 3 days after treatment, third-instar larvae, read-out: Weight Gain Inhibition Rate (%)) was determined as 90.6%. Moreover, the “Average Corrected Death Rate (%), stomach poisoning” value in test [3] (800 mg/L) is 84.21%; in test [3] (1000 mg/L) it was 86.84%. The “Post-treatment death rates of the larvae” value in test [3] (25-hour post-treatment, 1000 to 200 mg/L) is “below 30%”. In test [3] (in vivo), the “Lethal effect on diamondback moth” value is “strong lethal effect”. The “Insecticidal activity on aphids” value in test [4] is given as “able to kill aphids”. Further, the Selective antifeeding rate in test [5] (200 mg/L, 48 hour) was 71.30%; in test [5] (250 mg/L, 48 hours), 83.47%; in test [5] (300 mg/L, 48 hours) it was 83.82%. The “Feeding capacity of the tested larvae (FIGS. 2 and 3)” value in test [5] (300, 250, 200, 150 and 100 mg/L) is reported as “clear declines in their feeding capacity”.

For the origin of these results see patent US9198431B2, “Use of N6-(2-hydroxyethyl)-adenosine in preparation of crop pesticide” (Zhejiang Subtropical Crops Research Institute, priority 2013, dated 2015).
